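Each compound was tested at five concentrations against cells in 96-well plates for 48 hours. GI50 marks 50% less growth.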 Calls of active or inactive are those of the source. No stated cut-off is given here; in the data, active = GI50 up to about 1.1 µM and inactive = higher.

These results are taken from ChEMBL document CHEMBL1201862, “PubChem BioAssay data set” (2004).

Among the test systems are A549; ACHN; K562; KM-20L2; M19-MEL; MOLT-4; NCI-H226; NCI-H23; OVCAR-5; OVCAR-8; RXF 393; SF-539; SK-MEL-28; SNB-75; SNB-78; U-251; SK-OV-3.
What all share (test): NCI tumour cell line growth inhibition, 48 h

As for `Cc1ccc(C)c(NC(=O)CC2C(=O)Nc3ccccc3S2(=O)=O)c1` (stereo not given), the GI50 with A549 is > 100 µM (inactive); in the test on ACHN it was 48.2 µM (inactive); in the test with K562, 53.1 µM (inactive); in the test on KM-20L2, > 100 µM (inactive); in the test on M19-MEL, 63 µM (inactive); with MOLT-4, > 100 µM (inactive). For the same molecule, the GI50 in the test with NCI-H226 is 36.8 µM (inactive); in the test on NCI-H23, 61.1 µM (inactive); in the test with OVCAR-5, > 100 µM (inactive); in the test with OVCAR-8, 37.2 µM (inactive); with RXF 393 it was 27.9 µM (inactive); with SF-539 it was 25.5 µM (inactive). Besides, the GI50 in the test on SK-MEL-28 is 72.9 µM (inactive); in the test on SNB-75, 21.5 µM (inactive); in the test on SNB-78, 68.4 µM (inactive); in the test on U-251, 43.3 µM (inactive).
Regarding `O=C1OC(=O)C2C1C1(c3ccccc3)OC2(c2ccccc2)c2c(Br)c(Br)c(Br)c(Br)c21` (stereo not given), the GI50 with A549, with K562, in the test with KM-20L2, in the test on M19-MEL, in the test with MOLT-4 and with NCI-H226 was > 100 µM (inactive) each time. Besides, the GI50 in the test with NCI-H23 was > 100 µM (inactive); in the test on OVCAR-5, > 100 µM (inactive); in the test with OVCAR-8 it was > 100 µM (inactive); in the test with RXF 393, 42.3 µM (inactive); in the test on SF-539, > 100 µM (inactive); in the test with SK-OV-3, 28.7 µM (inactive). Further, the figures for the GI50 in the test with SNB-75, in the test with SNB-78 and in the test with U-251 were > 100 µM (inactive), 83.8 µM (inactive) and > 100 µM (inactive), respectively.
As to `COc1ccc2[nH]c3c(c2c1)CCN(C)CC3`, the GI50 with A549 was > 100 µM (inactive); in the test with ACHN, > 100 µM (inactive); in the test on K562, > 100 µM (inactive); in the test with KM-20L2 it was > 100 µM (inactive); in the test with M19-MEL it was 57.4 µM (inactive); in the test on MOLT-4 it was > 100 µM (inactive). Besides, the GI50 in the test on NCI-H23, in the test with OVCAR-5, in the test with OVCAR-8, in the test with SF-539, in the test on SK-MEL-28 and in the test on SK-OV-3 was > 100 µM (inactive) throughout. Further, the GI50 in the test with SNB-75, with SNB-78 and in the test on U-251 was > 100 µM (inactive) each time.
With `O=C(O)c1cc(=O)c2[nH]c3ccccc3c2s1`, the GI50 in the test on A549, in the test with ACHN, with K562, in the test on KM-20L2, with M19-MEL and with MOLT-4 was > 100 µM (inactive) throughout. Moreover, the GI50 with NCI-H23, with OVCAR-5, with OVCAR-8, in the test on RXF 393, in the test on SK-MEL-28 and in the test on SK-OV-3 was > 100 µM (inactive) each time. Besides, the GI50 is 41.4 µM (inactive) in the test with SNB-75 and > 100 µM (inactive) in the test with SNB-78.
For `C1OC1C1CO1` (stereo not given), the GI50 is 30.1 µM (inactive) in the test with A549; 80.2 µM (inactive) in the test on K562; 98.2 µM (inactive) in the test on KM-20L2; 58.9 µM (inactive) with M19-MEL; 3.28 µM (inactive) in the test with MOLT-4; > 100 µM (inactive) in the test with NCI-H226. Also, the GI50 is 18.1 µM (inactive) in the test on NCI-H23; > 100 µM (inactive) in the test with OVCAR-5; > 100 µM (inactive) with OVCAR-8; 48.4 µM (inactive) with RXF 393; 59.8 µM (inactive) in the test on SF-539; 51.8 µM (inactive) in the test with SK-MEL-28. Further, the GI50 with SK-OV-3 was 57.8 µM (inactive); with SNB-75 it was 14.6 µM (inactive); with SNB-78, 87.3 µM (inactive); with U-251, 20.1 µM (inactive).
Turning to `Nc1cc(=O)n(-c2ccccc2)c(=S)n1-c1ccccc1`, the GI50 with A549, in the test on ACHN, in the test with K562, in the test with KM-20L2, in the test with M19-MEL and in the test with MOLT-4 was > 100 µM (inactive) each time. Moreover, the GI50 in the test on NCI-H226, in the test with OVCAR-5, in the test on OVCAR-8, in the test with RXF 393, with SF-539 and with SK-OV-3 was > 100 µM (inactive) each time. Further, the GI50 in the test with SNB-75, in the test on SNB-78 and in the test with U-251 was > 100 µM (inactive) throughout.
As for `COc1ccc(C[C@H](N)C(=O)NC2C(CO)OC(n3cnc4c(N(C)C)ncnc43)C2O)cc1` (stereo not given in full), the GI50 was 0.492 µM (active) in the test with A549; 1.01 µM (active) with ACHN; 0.133 µM (active) with K562; 0.513 µM (active) in the test on KM-20L2; 0.296 µM (active) in the test on M19-MEL; 0.13 µM (active) in the test with MOLT-4. Further, the GI50 is 0.174 µM (active) with NCI-H226; 0.161 µM (active) in the test on NCI-H23; 5.31 µM (inactive) in the test with OVCAR-5; 0.182 µM (active) in the test with OVCAR-8; 0.261 µM (active) in the test with RXF 393; 0.187 µM (active) in the test with SK-MEL-28. In addition, the GI50 in the test with SK-OV-3 is 0.395 µM (active); in the test with SNB-75, 0.0807 µM (active); with SNB-78, 0.213 µM (active); in the test on U-251 it was 0.0297 µM (active).
Turning to `Cc1cc2c3ccccc3n3c2c2c1OC1(C)CCC(C2C1)C3(C)C` (stereo not given), the GI50 with A549, with ACHN, in the test with K562, in the test on KM-20L2, in the test on M19-MEL and with MOLT-4 was > 25 µM (inactive) each time. The GI50 with NCI-H226, in the test on OVCAR-5, in the test on OVCAR-8, in the test on SF-539, with SK-MEL-28 and in the test with SK-OV-3 was > 25 µM (inactive) throughout. The GI50 with SNB-78 and in the test with U-251 was > 25 µM (inactive) each time.
Turning to `Oc1ccc([Te]CCNCC[Te]c2ccc(O)cc2)cc1`, the GI50 is 3.66 µM (inactive) in the test with A549; 20.1 µM (inactive) in the test on ACHN; 10 µM (inactive) in the test on K562; 14.4 µM (inactive) in the test on KM-20L2; 7.29 µM (inactive) in the test with M19-MEL; 4.49 µM (inactive) in the test with MOLT-4. The GI50 was 21.3 µM (inactive) in the test on NCI-H226; 4.78 µM (inactive) in the test on NCI-H23; 16 µM (inactive) in the test with OVCAR-5; 16.3 µM (inactive) with OVCAR-8; > 10 µM (inactive) in the test on SF-539; 25 µM (inactive) in the test with SK-OV-3. Moreover, the GI50 in the test on SNB-75 is 6.55 µM (inactive); in the test with SNB-78, 22 µM (inactive); with U-251 it was 6.22 µM (inactive).
With `CCOC(=O)C1CC/C(=C(/C#N)C(=O)OC)N1` (stereo not given), the GI50 in the test on A549, in the test on ACHN, in the test on K562, in the test on KM-20L2, in the test on M19-MEL and in the test with MOLT-4 was > 100 µM (inactive) throughout. Moreover, the GI50 was > 100 µM (inactive) with NCI-H23; > 100 µM (inactive) with OVCAR-8; > 100 µM (inactive) in the test with RXF 393; > 100 µM (inactive) with SF-539; > 100 µM (inactive) in the test on SK-MEL-28; 57.7 µM (inactive) with SK-OV-3. The GI50 with SNB-75, in the test with SNB-78 and in the test with U-251 was > 100 µM (inactive) in each case.
With `CC(C)(C=O)CC(C#N)/C(=N\NC(N)=O)C(=O)Nc1ccccc1C(N)=O` (stereo not given), the GI50 in the test on A549, in the test on ACHN, in the test on K562, with KM-20L2, in the test on M19-MEL and in the test with MOLT-4 was > 100 µM (inactive) throughout. For the same molecule, the GI50 in the test on NCI-H226, in the test on NCI-H23, in the test with OVCAR-5, in the test with OVCAR-8, in the test on SF-539 and in the test with SK-MEL-28 was > 100 µM (inactive) in each case. Further, the GI50 in the test with SK-OV-3, with SNB-78 and in the test with U-251 was > 100 µM (inactive) throughout.
Consider `N#Cc1cc(NC(=O)c2ccccc2)c(=O)n2c1[nH]c1ccccc12`, for which the GI50 with A549 was 24.5 µM (inactive); with ACHN, 29.9 µM (inactive); in the test on K562, 31.7 µM (inactive); in the test with KM-20L2 it was 32.7 µM (inactive); in the test on M19-MEL, 30.1 µM (inactive); in the test on MOLT-4, 29.6 µM (inactive). The GI50 is 20 µM (inactive) with NCI-H23; 38.3 µM (inactive) with OVCAR-8; 13.6 µM (inactive) with RXF 393; 21.5 µM (inactive) in the test with SF-539; 21.6 µM (inactive) in the test with SK-MEL-28; 28.8 µM (inactive) in the test on SK-OV-3. Moreover, the results for the GI50 in the test with SNB-75, with SNB-78 and in the test on U-251 were 25.9 µM (inactive), 35 µM (inactive) and 26.9 µM (inactive), respectively.
Turning to `COc1cc2ccnc3c2c(c1OC)-c1coc(SC)c1-3`, the GI50 in the test with A549 is > 100 µM (inactive); in the test with ACHN, > 100 µM (inactive); in the test with K562, > 100 µM (inactive); with KM-20L2, > 100 µM (inactive); with M19-MEL, > 100 µM (inactive); with MOLT-4 it was 22.1 µM (inactive). The GI50 in the test with OVCAR-5 is > 100 µM (inactive); in the test with OVCAR-8 it was 35.2 µM (inactive); in the test on RXF 393, 4.67 µM (inactive); with SF-539, 56.5 µM (inactive); in the test on SK-OV-3 it was > 100 µM (inactive); in the test on SNB-75 it was 19.7 µM (inactive). The GI50 with SNB-78 was > 100 µM (inactive); with U-251, 67.1 µM (inactive).
